Laboratory results from patent US9579319B2 (Redx Pharma PLC, priority 2013, dated 2017).

tested on: Hedgehog signalling pathway; assay: Gli-reporter NIH3T3 luciferase assay (Hedgehog pathway inhibition); format: cell-based; conditions: NIH3T3; Gli-reporter NIH-3T3 cells, recombinant mouse sonic hedgehog, 24 hours, luminescence; read-out: Category (Hedgehog pathway inhibition activity, IC50)
In short: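 Mouse NIH3T3 cells with Gli-responsive luciferase reporter, pre-treated 1 h with compound (top final concentration 1 μM, 0.1% DMSO) in 0.5% calf serum medium. Then stimulated with recombinant mouse sonic hedgehog for 24 h at 37° C. Luminescence read-out (OneGLO), triplicates; IC50 reported.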

Row | Structure (SMILES) | IC50
1 | CN(Cc1cccc(F)c1)C1CCN(c2nnc(-c3ccnn3C)c3ccccc23)CC1 [Example 65, (3-fluorophenyl)methyl-methyl-[1-[4-(2-methylpyrazol-3-yl)phthalazin-1-yl]-4-piperidyl]ammonium] | 0.01 to 0.2 µM
2 | Cn1nccc1-c1nnc(N2CCC(NC(=O)Nc3cccc(C(F)(F)F)c3)CC2)c2ccccc12 [Example 13, 1-[1-[4-(2-methylpyrazol-3-yl)phthalazin-1-yl]-4-piperidyl]-3-[3-(trifluoromethyl)phenyl]urea] | < 0.01 µM
3 | Cn1nccc1-c1nnc(N2CCC(NCc3ccc(OC(F)(F)F)cc3)CC2)c2ccccc12 [Example 20, 1-[4-(2-methylpyrazol-3-yl)phthalazin-1-yl]-N-[[4-(trifluoromethoxy)phenyl]methyl]piperidin-4-amine] | 0.01 to 0.2 µM
4 | Cn1nccc1-c1nnc(N2CCC(NCc3ccc(C#N)cc3)CC2)c2ccccc12 [Example 68, 4-[[[1-[4-(2-methylpyrazol-3-yl)phthalazin-1-yl]-4-piperidyl]amino]methyl]benzonitrile] | 0.2 to 2 µM
5 | COc1cccc(CNC2CCN(c3nnc(-c4ccnn4C)c4ccccc34)CC2)c1 [Example 70, N-[(3-methoxyphenyl)methyl]-1-[4-(2-methylpyrazol-3-yl)phthalazin-1-yl]piperidin-4-amine] | 0.01 to 0.2 µM
6 | COc1ccc(CNC2CCN(c3nnc(-c4ccnn4C)c4ccccc34)CC2)cc1 [Example 71, N-[(4-methoxyphenyl)methyl]-1-[4-(2-methylpyrazol-3-yl)phthalazin-1-yl]piperidin-4-amine] | 0.2 to 2 µM
7 | COc1ccc(CN(C)C2CCN(c3nnc(-c4ccnn4C)c4ccccc34)CC2)cc1 [Example 63, (4-methoxyphenyl)methyl-methyl-[1-[4-(2-methylpyrazol-3-yl)phthalazin-1-yl]-4-piperidyl]ammonium] | 0.2 to 2 µM
8 | Cn1nccc1-c1nnc(N2CCC(NC(=O)OC(C)(C)C)CC2)c2ccccc12 [Example 66, tert-butyl N-[1-[4-(2-methylpyrazol-3-yl)phthalazin-1-yl]-4-piperidyl]carbamate] | 0.01 to 0.2 µM
9 | CN(Cc1ccccc1C#N)C1CCN(c2nnc(-c3ccnn3C)c3ccccc23)CC1 [Example 33, 2-[[methyl-[1-[4-(2-methylpyrazol-3-yl)phthalazin-1-yl]-4-piperidyl]amino]methyl]benzonitrile] | 0.01 to 0.2 µM
10 | CN(Cc1ccccc1OC(F)F)C1CCN(c2nnc(-c3ccnn3C)c3ccccc23)CC1 [Example 12, N-[[2-(difluoromethoxy)phenyl]methyl]-N-methyl-1-[4-(2-methylpyrazol-3-yl)phthalazin-1-yl]piperidin-4-amine] | 0.01 to 0.2 µM
11 | Cn1nccc1-c1nnc(N2CCC(NCc3ccc(F)nc3C(F)(F)F)CC2)c2ccccc12 [Example 18, N-[[6-fluoro-2-(trifluoromethyl)-3-pyridyl]methyl]-1-[4-(2-methylpyrazol-3-yl)phthalazin-1-yl]piperidin-4-amine] | 0.01 to 0.2 µM
12 | Cn1nccc1-c1nnc(N2CCC(NCc3ccccc3Cl)CC2)c2ccccc12 [Example 38, N-[(2-chlorophenyl)methyl]-1-[4-(2-methylpyrazol-3-yl)phthalazin-1-yl]piperidin-4-amine] | 0.01 to 0.2 µM
13 | CC(=O)N(Cc1ccc(F)cc1C(F)(F)F)C1CCN(c2nnc(-c3ccnn3C)c3ccccc23)CC1 [Example 77, N-[[4-fluoro-2-(trifluoromethyl)phenyl]methyl]-N-[1-[4-(2-methylpyrazol-3-yl)phthalazin-1-yl]-4-piperidyl]acetamide] | 0.01 to 0.2 µM
14 | COc1nnc(N2CCC(NCc3ccc(F)cc3C(F)(F)F)CC2)c2ccccc12 [Example 58, N-[[4-fluoro-2-(trifluoromethyl)phenyl]methyl]-1-(4-methoxyphthalazin-1-yl)piperidin-4-amine] | 0.2 to 2 µM
15 | Cc1ccccc1CN(C)C1CCN(c2nnc(-c3ccnn3C)c3ccccc23)CC1 [Example 30, N-methyl-1-[4-(2-methylpyrazol-3-yl)phthalazin-1-yl]-N-(o-tolylmethyl)piperidin-4-amine] | < 0.01 µM

same assay, conditions: NIH3T3; Gli-reporter NIH-3T3 cells, recombinant mouse sonic hedgehog, 24 hours, luminescence; read-out: Gli luc IC50

Row | Structure (SMILES) | IC50
16 | CN(Cc1ccc(F)nc1C(F)(F)F)C1CCN(c2nnc(-c3ccnn3C)c3ccccc23)CC1 [Example 160, N-[[6-fluoro-2-(trifluoromethyl)-3-pyridyl]methyl]-N-methyl-1-[4-(2-methylpyrazol-3-yl)phthalazin-1-yl]piperidin-4-amine] | < 0.01 µM
17 | Cn1nccc1-c1nnc(N2CCC(NCc3cccc(F)c3F)CC2)c2ccccc12 [Example 163, N-[(2,3-difluorophenyl)methyl]-1-[4-(2-methylpyrazol-3-yl)phthalazin-1-yl]piperidin-4-amine] | 0.01 to 0.2 µM
18 | CN(Cc1ccccc1[N+](=O)[O-])C1CCN(c2nnc(-c3ccnn3C)c3ccccc23)CC1 [Example 114, N-methyl-1-[4-(2-methylpyrazol-3-yl)phthalazin-1-yl]-N-[(2-nitrophenyl)methyl]piperidin-4-amine] | 0.01 to 0.2 µM
19 | Cc1cc(-c2nnc(N3CCC(NCc4ccc(F)cc4C(F)(F)F)CC3)c(C)c2C)ccn1 [Example 122, 1-[4,5-dimethyl-6-(2-methyl-4-pyridyl)pyridazin-3-yl]-N-[[4-fluoro-2-(trifluoromethyl)phenyl]methyl]piperidin-4-amine] | > 0.2 µM
20 | Cc1c(-c2ccnn2C)nnc(N2CCC(N(C)Cc3ccncn3)CC2)c1C [Example 171, 1-[4,5-dimethyl-6-(2-methylpyrazol-3-yl)pyridazin-3-yl]-N-methyl-N-(pyrimidin-4-ylmethyl)piperidin-4-amine] | > 1 µM
21 | Cc1c(-c2ccncc2)nnc(N2CCC(NCc3ccc(F)cc3C(F)(F)F)CC2)c1C [Example 123, 1-[4,5-dimethyl-6-(4-pyridyl)pyridazin-3-yl]-N-[[4-fluoro-2-(trifluoromethyl)phenyl]methyl]piperidin-4-amine] | 0.01 to 0.2 µM
22 | CN(C(=O)NC(C)(C)C)C1CCN(c2nnc(-c3ccnn3C)c3c2CCC3)CC1 [Example 133, 3-tert-butyl-1-methyl-1-[1-[1-(2-methylpyrazol-3-yl)-6,7-dihydro-5H-cyclopenta[d]pyridazin-4-yl]-4-piperidyl]urea] | 0.01 to 0.2 µM
23 | Cc1c(-c2ccnn2C)nnc(N2CCC(N(C)Cc3cccc(OC(F)(F)F)c3)CC2)c1C [Example 83, 1-[4,5-dimethyl-6-(2-methylpyrazol-3-yl)pyridazin-3-yl]-N-methyl-N-[[3-(trifluoromethoxy)phenyl]methyl]piperidin-4-amine] | 0.01 to 0.2 µM
24 | Cc1c(-c2ccnn2C)nnc(N2CCC(N(C)C(=O)Nc3ccccc3F)CC2)c1C [Example 126, 1-[1-[4,5-dimethyl-6-(2-methylpyrazol-3-yl)pyridazin-3-yl]-4-piperidyl]-3-(2-fluorophenyl)-1-methyl-urea] | 0.01 to 0.2 µM
25 | CSc1nccc(CN(C)C2CCN(c3nnc(-c4ccnn4C)c4ccccc34)CC2)n1 [Example 92, N-methyl-1-[4-(2-methylpyrazol-3-yl)phthalazin-1-yl]-N-[(2-methylsulfanylpyrimidin-4-yl)methyl]piperidin-4-amine] | 0.01 to 0.2 µM
26 | CN(Cc1cccc(C#N)c1)C1CCN(c2nnc(-c3ccnn3C)c3c2CCC3)CC1 [Example 131, 3-[[methyl-[1-[1-(2-methylpyrazol-3-yl)-6,7-dihydro-5H-cyclopenta[d]pyridazin-4-yl]-4-piperidyl]amino]methyl]benzonitrile] | 0.01 to 0.2 µM
27 | CN(Cc1ccc(F)cc1C(F)(F)F)C1CCN(c2nnc(-c3ccnn3C)c3c2CCC3)CC1 [Example 132, N-[[4-fluoro-2-(trifluoromethyl)phenyl]methyl]-N-methyl-1-[1-(2-methylpyrazol-3-yl)-6,7-dihydro-5H-cyclopenta[d]pyridazin-4-yl]piperidin-4-amine] | 0.01 to 0.2 µM
28 | CN(Cc1cccc(C#N)c1)C1CCN(c2nnc(-c3ccnn3C)c3ccccc23)CC1 [Example 168, 3-[[methyl-[1-[4-(2-methylpyrazol-3-yl)phthalazin-1-yl]-4-piperidyl]amino]methyl]benzonitrile] | 0.01 to 0.2 µM
29 | Cn1nccc1-c1nnc(N2CCC(NS(=O)(=O)c3ccc(F)cc3C(F)(F)F)CC2)c2cnccc12 [Example 106, 4-fluoro-N-[1-[1-(2-methylpyrazol-3-yl)pyrido[3,4-d]pyridazin-4-yl]-4-piperidyl]-2-(trifluoromethyl)benzenesulfonamide] | 0.01 to 0.2 µM
30 | Cn1nccc1-c1nnc(N2CCC(NC(=O)NC(C)(C)C)CC2)c2c1CCC2 [Example 161, 1-tert-butyl-3-[1-[1-(2-methylpyrazol-3-yl)-6,7-dihydro-5H-cyclopenta[d]pyridazin-4-yl]-4-piperidyl]urea] | 0.01 to 0.2 µM
31 | Cn1nccc1-c1nnc(N2CCC(NC(=O)Nc3ccc(F)cc3C(F)(F)F)CC2)c2cnccc12 [Example 105, 1-[4-fluoro-2-(trifluoromethyl)phenyl]-3-[1-[1-(2-methylpyrazol-3-yl)pyrido[3,4-d]pyridazin-4-yl]-4-piperidyl]urea] | < 0.01 µM
32 | CN(Cc1ccc(F)cc1C(F)(F)F)C1CCN(c2nnc(-c3ccnn3C)c3cccnc23)CC1 [Example 135, N-[[4-fluoro-2-(trifluoromethyl)phenyl]methyl]-N-methyl-1-[5-(2-methylpyrazol-3-yl)pyrido[2,3-d]pyridazin-8-yl]piperidin-4-amine] | 0.01 to 0.2 µM
33 | CSc1nccc(CN(C)C2CCN(c3nnc(-c4ccnn4C)c(C)c3C)CC2)n1 [Example 93, 1-[4,5-dimethyl-6-(2-methylpyrazol-3-yl)pyridazin-3-yl]-N-methyl-N-[(2-methylsulfanylpyrimidin-4-yl)methyl]piperidin-4-amine] | > 0.2 µM
34 | Cc1c(-c2ccnn2C)nnc(N2CCC(N(C)Cc3ccccc3[N+](=O)[O-])CC2)c1C [Example 81, 1-[4,5-dimethyl-6-(2-methylpyrazol-3-yl)pyridazin-3-yl]-N-methyl-N-[(2-nitrophenyl)methyl]piperidin-4-amine] | < 0.01 µM
